Test: Liver microsomal metabolism stability assay (human)
Format: in vitro ADME
Details: compound 1 µM; for half-life at 1 µM: human liver microsomes 0.5 mg/mL, NADPH/UDPGA, read-out: Human t1/2; for Human Remaining rate: human liver microsomes, 60 min
Description: The objective of this experiment was to detect the stability of the example compounds in liver microsomes of rats, dogs and humans.
Formulation of compound working solution: compound stock solution was added to phosphate buffer to a final concentration of 20 µM.
Dilution was performed with 100 mM phosphate buffer to a final concentration of 0.625 mg/mL.
NADPH (reduced nicotinamide adenine dinucleotide phosphate) and UDPGA (uridine diphosphate glucuronic acid) were weighed, and 100 mM phosphate buffer was added to a final concentration of 20 mM.
1 mg of Alamethicin was weighed, and 200 µL of DMSO was added to formulate a 5 mg/mL solution. Then dilution was performed with phosphate buffer to a final concentration of 50 µg/mL.
Stop solution: cold acetonitrile containing 100 ng/mL labetalol hydrochloride and 400 ng/mL tolbutamide as internal standards.
400 µL of formulated liver microsomes, 25 µL of compound working solution and 25 µL of Alamethicin were added in sequence to a 96-well plate, and the mixture was pre-incubated at 37°C for 10 min. Then 50 µL of formulated NADPH/UDPGA was added to start the reaction and the mixture was incubated at 37°C. The total volume of the reaction system was 500 µL. The final contents of each component are as follows:
• Instrument: Shimadzu LC-30 AD; • Chromatographic column: XBridge® C18 (50*4.6 mm, 5 µm particle size); • Mobile phase: A: 0.1% formic acid solution, B: methanol • Elution gradient: 0.2-1.6 min 5% A to 95% A, 3.0-3.1 min 95% A to 5% A • Run time: 4.0 min.
• Instrument: API5500 liquid chromatography-mass spectrometer, AB Sciex; • Ion source: electrospray ionization source (ESI); • Drying gas: N2, temperature 500°C; • Electrospray voltage: 5000 V; • Detection mode: positive ion detection; • Scan mode: Multiple Reaction Monitoring (MRM) mode.

| Structure (SMILES) | half-life at 1 µM [min] | Human Remaining rate [%] |
| --- | --- | --- |
| [2H]C([2H])(c1ccc(-c2ccccc2S(=O)(=O)Nc2noc(C)c2Cl)c(COCC)c1)N1C(=O)C2(CCCC2)N=C1CCCC [Example 2, 4'-((2-Butyl-4-oxo-1,3-diazaspiro[4.4]non-1-en-3-yl)methyl-d2)-N-(4-chloro-5-methylisoxazol-3-yl)-2'-(ethoxymethyl)-[1,1'-biphenyl]-2-sulfonamide] | 38.5 | 33.0 |
| CCCCC1=NC2(CCCC2)C(=O)N1Cc1ccc(-c2ccccc2S(=O)(=O)Nc2noc(C)c2Cl)c(COCC)c1 [Example 8, 2-[4-[(2-Butyl-4-oxo-1,3-diazaspiro[4.4]non-1-en-3-yl)methyl]-2-(ethoxymethyl)phenyl]-N-(4-chloro-5-methyl-isoxazol-3-yl)benzenesulfonamide] | 36.5 | 32.0 |

From patent EP4671240A1, “SALT CONTAINING AROMATIC RING DERIVATIVE ANTAGONIST, PREPARATION METHOD THEREFOR, AND APPLICATION THEREOF” (Jiangsu Hansoh Pharmaceutical Group Co., Ltd., priority 2023, dated 2024)
